The record followed here is patent US8110228B2, “Composition for treatment of menopause” (Bionovo, Inc., priority 2005, dated 2012).

Marks after values point to notes of the source that are not given here.

For series [1], the system named is U2OS-ERα and U2OS-ERβ cell lines. The series can be described thus: Affymetrix U95Av2 microarray, genes regulated across U2OS-ERα and U2OS-ERβ cell lines. The series is classed as cell-based, human. Conditions: for number of genes Activated, α + β / number of genes Repressed, α + β: in both cell lines; for number of genes Activated, α + β / number of genes Repressed, α + β / total genes regulated in U2OSα and U2OSβ cell lines: 18 h; for total genes regulated in U2OSα and U2OSβ cell lines: p<0.05, 10 nM E2, 1 μM raloxifene or 1 μM tamoxifen. Here is the method:
(§1) To identify genes regulated by ERα and/or ERβ, the U2OS-ERα and U2OS-ERβ cell lines were treated with doxycycline for 18 h in the absence or presence of 10 nM E2. Total RNA was used to prepare cRNA for hybridization with the human U95Av2 Affymetrix microarrays, which contain 12,600 known genes. Six sets of comparative expression data of untreated vs. each treated group were used to determine the genes regulated in ERα or ERβ cells.
(§2) Microarray data obtained from human Affymetrix U95Av2 gene chips from untreated vs. ligand-treated samples were analyzed using the Affymetrix Microarray Suite Version 5.0. Candidate genes displaying a statistically significant (p<0.05) increase or decrease signal changes relative to controls in at least three experiments were further selected by a ±0.8 signal log ratio mean cut-off. […] Fold-changes in the U2OS-ERα and U2OS-ERβ samples (in parentheses) were calculated relative to the untreated samples.

The subject of series [2] is U2OS-ERα cells. As to the kind of experiment: Affymetrix U95Av2 gene expression microarray in U2OS-ERα cells. The following applies: for number of genes Activated, α / number of genes Repressed, α: 10 nM E2, 1 μM raloxifene or 1 μM tamoxifen. The format is cell-based, human. Here is the method:
as §1, §2

Series [3] deals with U2OS-ERα and U2OS-ERβ cell lines. The series can be described thus: Affymetrix U95Av2 microarray, genes regulated across U2OS-ERα and U2OS-ERβ cell lines. The series is classed as cell-based, human. The following applies: for number of common genes with opposite expression patterns in ERα cells compared to ERβ cells (*): α + β, 1 μM SERM, 18 h.
Series [4] has as its system U2OS-ERβ cells. As to the kind of experiment: Affymetrix U95Av2 gene expression microarray in U2OS-ERβ cells. The series is classed as cell-based, human. Here is the method:
as §1, §2

The test system of a further series is uterine horn. The series can be described thus: uterine horn mass, control vs DES vs MF101. The format is in vivo. The following applies: FIG. 3H. The source says:
(§3) In a similar experiment, the effect of MF101 on breast cancer cells was compared to that of diethylstilbestrol (DES). […] FIGS. 3G and 3H show the effect of control, DES and MF101 on a breast cancer graft mass (FIG. 3G) and a uterine horn mass (FIG. 3H).

The next series has as its system breast cancer graft. As to the kind of experiment: breast cancer graft (xenograft) growth, control vs DES vs MF101. The format is in vivo.
From the text: as §3

Series [5] has as its system U2OS-ERβ cells. Conditions: relative to untreated, 18 h.
Series [6] relates to U2OS-ERα cells. The following applies: relative to untreated, 18 h.
In a further series the target is T1, human ERβ (Homo sapiens, UniProt Q92731).
T1 construct: expressed in transfected cells; host or cells: U2OS osteosarcoma cells, transient transfection
T1 sequence (Q92731 whole entry): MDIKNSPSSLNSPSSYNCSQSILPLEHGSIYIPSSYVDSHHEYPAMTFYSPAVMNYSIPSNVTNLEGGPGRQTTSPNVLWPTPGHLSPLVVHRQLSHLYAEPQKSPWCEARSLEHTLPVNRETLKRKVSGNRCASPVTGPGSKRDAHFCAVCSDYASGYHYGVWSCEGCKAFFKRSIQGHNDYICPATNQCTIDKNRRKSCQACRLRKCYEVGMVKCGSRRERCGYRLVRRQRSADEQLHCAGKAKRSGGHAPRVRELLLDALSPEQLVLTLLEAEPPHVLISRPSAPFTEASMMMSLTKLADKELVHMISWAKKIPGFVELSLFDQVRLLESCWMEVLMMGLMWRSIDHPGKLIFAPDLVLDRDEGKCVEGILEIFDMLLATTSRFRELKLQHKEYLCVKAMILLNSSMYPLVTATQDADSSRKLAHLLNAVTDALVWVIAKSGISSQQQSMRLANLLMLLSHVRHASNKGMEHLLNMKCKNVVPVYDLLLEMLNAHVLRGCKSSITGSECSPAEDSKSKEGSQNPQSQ
As to the kind of experiment: ERE-tk-Luc reporter activation in U2OS osteosarcoma cells transfected with ERβ. The format is cell-based. The following applies: FIG. 1B.

Setting [7] is: only in U2OS-ERα cells, percent of all regulated genes.

As for `CC/C(=C(\c1ccccc1)c1ccc(OCCN(C)C)cc1)c1ccccc1` [tamoxifen], in [1], the “number of genes Activated, α + β” value came to 1; the “number of genes Repressed, α + β” value was determined as 9; the “total genes regulated in U2OSα and U2OSβ cell lines” value (from here on “total genes regulated”) was “Tamoxifen: 236 genes regulated in U2OSα and U2OSβ cell lines”. Also, in the series on U2OS-ERα cells [2] (only in U2OS-ERα cells, 18 h), the “number of genes Activated, α” value was 21 and the “number of genes Repressed, α” value is 38. In addition, in [3], the “percentage of genes regulated by tamoxifen that were also regulated by raloxifene” value was 27% and the “number of common genes with opposite expression patterns in ERα cells compared to ERβ cells (*)” value was 12*. For the same compound, in the series on U2OS-ERβ cells [4] (only in U2OS-ERβ cells, 18 h), the “number of genes Activated, β” value is 26 and the “number of genes Repressed, β” value was determined as 129.

`CC/C(=C(/CC)c1ccc(O)cc1)c1ccc(O)cc1` [DES, diethylstilbestrol]: the “growth of uterine horn mass” value in the series on uterine horn is “substantial increase in uterine horn growth”. For the same compound, the “growth of xenograft (breast cancer graft mass)” value with breast cancer graft (FIG. 3G) is recorded as “substantial increase in xenograft mass”. Moreover, the “proliferation of breast cancer cells” value in the series with breast cancer graft (FIGS. 3D-3F) is recorded as “proliferation-stimulating effect”.

In the case of `O=C(c1ccc(OCCN2CCCCC2)cc1)c1c(-c2ccc(O)cc2)sc2cc(O)ccc12` [raloxifene], the “Fold-change by real-time PCR, NKG2C (β)” value with U2OS-ERβ cells [5] came to 0.36 fold. For the same compound, in series [1], the “total genes regulated” value is “Raloxifene: 190 genes regulated in U2OSα and U2OSβ cell lines”. Moreover, the “relative percentage of common genes with opposite expression patterns (*)” value in series [1] (α + β) is “(8.9%)”. Moreover, in the series on U2OS-ERα cells [2] (U2OS-ERα, 18 h), the “Mean signal log ratio ± S.E., NKG2C (α)” value was 2.40 ± 0.82. In the series on U2OS-ERα cells [2] (only in U2OS-ERα cells, 18 h), the “number of genes Activated, α” value is listed as 10 and the “number of genes Repressed, α” value stood at 10. In the series on U2OS-ERα cells [2] (setting [7]), the “relative percentage of genes Activated, α” value was “(5.3%)” and the “relative percentage of genes Repressed, α” value is recorded as “(5.3%)”. Besides, in the series with U2OS-ERα cells [6], the “Fold-change by real-time PCR, NKG2C (α)” value is reported as 7.54 fold. At human ERβ, the “blockade of the activation of ERE-tk-Luc by MF101” value was “blocked”. The “number of common genes with opposite expression patterns in ERα cells compared to ERβ cells (*)” value in series [3] is reported as 17*. Also, in the series with U2OS-ERβ cells [4] (U2OS-ERβ, 18 h), the “Mean signal log ratio ± S.E., NKG2C (β)” value was −5.20 ± 0.08. Besides, in the series with U2OS-ERβ cells [4] (only in U2OS-ERβ cells), the “relative percentage of genes Activated, β” value was “(27.4%)” and the “relative percentage of genes Repressed, β” value is on record as “(53.2%)”. Also, in the series with U2OS-ERβ cells [4] (only in U2OS-ERβ cells, 18 h), the “number of genes Activated, β” value came to 52 and the “number of genes Repressed, β” value stood at 101.

`C[C@]12CC[C@@H]3c4ccc(O)cc4CC[C@H]3[C@@H]1CC[C@@H]2O` [estradiol]: the “percentage of genes regulated by both ERα and ERβ” value in series [1] (10 nM E2, 38 of the 228) is on record as 17%. Further, the “genes regulated by both ERα and ERβ” value in series [1] (10 nM E2, of the 228) amounted to 38 genes. Also, in [1], the “number of genes Activated, α + β” value worked out at 34; the “number of genes Repressed, α + β” value stood at 4; the “total genes regulated” value was “Estradiol: 228 genes regulated in U2OSα and U2OSβ cell lines”. Besides, the “total genes regulated” value in series [1] (listed as E2) is listed as 228 genes. Further, the “genes regulated only in the U2OS-ERα cells” value in the series on U2OS-ERα cells [2] (10 nM E2) amounted to 65 genes. Further, in the series on U2OS-ERα cells [2] (only in U2OS-ERα cells, 18 h), the “number of genes Activated, α” value is 33 and the “number of genes Repressed, α” value was found to be 32. Besides, the “genes regulated only in the U2OS-ERβ cells” value in the series with U2OS-ERβ cells [4] (10 nM E2) turned out to be 125 genes. In addition, in the series with U2OS-ERβ cells [4] (only in U2OS-ERβ cells, 18 h), the “number of genes Activated, β” value is recorded as 87 and the “number of genes Repressed, β” value is given as 38.
